Experimental data: paper PMC11079024, “Identification of a family of species-selective complex I inhibitors as potential anthelmintics” (Nature Communications, 2024)
Read-outs that look alike come from different tables or passages of the source.

Experiments:
L1 wild-type C. elegans = conditions: for Screen "Hit": 50 μM
[1] = system: ben-1 mutant (ECA882) C. elegans; experiment: microbe, parasite or virus in culture; conditions: Caenorhabditis elegans; for viability at 1 µM / viability at 2 µM / viability at 3.9 µM / viability at 15.6 µM / viability at 31.3 µM / viability at 62.5 µM / viability at 125 µM / viability at 250 µM / viability at 500 µM / viability at 1000 µM: read-out: C. elegans ben-1(e1880) development/viability
Method in brief: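 L1 larvae (~2 worms/μL in M9) in liquid NGM with 2-fold concentrated E. coli HB101, compound at 1% DMSO, 6 days at 20 °C shaking 165 rpm. Well images scored as summed worm-associated pixels, normalized to DMSO controls; relative viability averaged over at least three biological replicates.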

in vitro = conditions: human; for viability at 2 days, 3.13 µM / viability at 2 days, 6.25 µM / viability at 2 days, 12.5 µM / viability at 2 days, 25 µM / viability at 2 days, 50 µM / viability at 2 days, 100 µM: HEK293 cells (Flp-In-293), HEK293 viability
[2] = hit = relative motility below 0.25 3 hours after removal of KCN
[3] = Dose 0.2 µM, mean of at least three biological replicates
[4] = read-out: C. elegans (ben-1) Development & Viability Assay LC50
[5] = read-out: C. elegans ben-1 log10 LC50 (converted)
[6] = KCN survival assay, hit = relative motility below 0.25
[7] = HEK293 Cell Viability Assay LC50, HEK293 cells, estimated from fitted dose-response curves
[8] = HEK293 Cell Viability Assay LC50, HEK293 cells, estimated from fitted dose-response curves, mean of at least two biological replicates
[9] = read-out: C. elegans ben-1 LC50

Cc1cccc(OCCn2c(C)nc3ccccc32)c1 [Compound 6285199]
Screen "Hit" (L1 wild-type C. elegans; [2]): Y (hits were identified as compounds that reduced relative motility below 0.25 (75% reduction)) | C. elegans KCN Survival (L1 wild-type C. elegans; [3]): 1.002 | C. elegans KCN Survival (L1 wild-type C. elegans; Dose 0.39 µM): 1.011 | C. elegans KCN Survival (L1 wild-type C. elegans; Dose 1.56 µM): 0.994 | C. elegans KCN Survival (L1 wild-type C. elegans; Dose 3.13 µM): 1.093 | C. elegans KCN Survival (L1 wild-type C. elegans; Dose 6.25 µM): 0.980 | C. elegans KCN Survival (L1 wild-type C. elegans; Dose 12.5 µM): 0.810 | C. elegans KCN Survival (L1 wild-type C. elegans; Dose 25 µM): 0.165 | C. elegans KCN Survival (L1 wild-type C. elegans; Dose 50 µM): 0.143 | C. elegans KCN Survival (L1 wild-type C. elegans; Dose 100 µM): 0.167 | LC50 [1, 4]: 205 µM | viability at 1 µM [1]: 99.9% | viability at 2 µM [1]: 91.6% | viability at 3.9 µM [1]: 97.6% | viability at 15.6 µM [1]: 95.5% | viability at 31.3 µM [1]: 93.8% | viability at 62.5 µM [1]: 97.6% | viability at 125 µM [1]: 100% | viability at 250 µM [1]: 64.8% | LC50 [1, 5]: 205 µM | CC50 at 2 days (in vitro): 97.7 µM | viability at 2 days, 3.13 µM (in vitro): 100% | viability at 2 days, 6.25 µM (in vitro): 100% | viability at 2 days, 12.5 µM (in vitro): 100% | viability at 2 days, 25 µM (in vitro): 100% | viability at 2 days, 50 µM (in vitro): 98.3% | viability at 2 days, 100 µM (in vitro): 46.5%

Clc1ccc(Cn2cnc3ccccc32)cc1Cl [Compound 5571325]
Screen "Hit" (L1 wild-type C. elegans; [6]): Y (hits were identified as compounds that reduced relative motility below 0.25 (75% reduction)) | C. elegans KCN Survival (L1 wild-type C. elegans; [3]): 1.000 | C. elegans KCN Survival (L1 wild-type C. elegans; Dose 0.39 µM): 0.996 | C. elegans KCN Survival (L1 wild-type C. elegans; Dose 1.56 µM): 1.008 | C. elegans KCN Survival (L1 wild-type C. elegans; Dose 3.13 µM): 0.957 | C. elegans KCN Survival (L1 wild-type C. elegans; Dose 6.25 µM): 0.819 | C. elegans KCN Survival (L1 wild-type C. elegans; Dose 12.5 µM): 0.586 | C. elegans KCN Survival (L1 wild-type C. elegans; Dose 25 µM): 0.133 | C. elegans KCN Survival (L1 wild-type C. elegans; Dose 50 µM): 0.122 | C. elegans KCN Survival (L1 wild-type C. elegans; Dose 100 µM): 0.206 | LC50 [1, 4]: 69.5 µM | LC50 [1, 5]: 69.5 µM | CC50 at 2 days (in vitro; [7]): 86.4 µM | viability at 2 days, 3.13 µM (in vitro): 73.5% | viability at 2 days, 6.25 µM (in vitro): 52.9% | viability at 2 days, 12.5 µM (in vitro): 49.8% | viability at 2 days, 25 µM (in vitro): 60.7% | viability at 2 days, 50 µM (in vitro): 57.7% | viability at 2 days, 100 µM (in vitro): 16.3%

C=CCn1c(-c2ccc(N(C)C)cc2)nc2ccccc21 [Compound 6873298]
Screen "Hit" (L1 wild-type C. elegans; [6]): Y (hits were identified as compounds that reduced relative motility below 0.25 (75% reduction)) | LC50 [1, 4]: 40.6 µM | LC50 [1, 5]: 40.6 µM | CC50 at 2 days (in vitro; [8]): 65.3 µM

Clc1ccc(Cn2cnc3ccccc32)c(Cl)c1 [Compound 6750659]
Screen "Hit" (L1 wild-type C. elegans; [6]): Y (hits were identified as compounds that reduced relative motility below 0.25 (75% reduction)) | C. elegans KCN Survival (L1 wild-type C. elegans; [3]): 0.888 | C. elegans KCN Survival (L1 wild-type C. elegans; Dose 0.39 µM): 0.896 | C. elegans KCN Survival (L1 wild-type C. elegans; Dose 1.56 µM): 0.908 | C. elegans KCN Survival (L1 wild-type C. elegans; Dose 3.13 µM): 0.544 | C. elegans KCN Survival (L1 wild-type C. elegans; Dose 6.25 µM): 0.267 | C. elegans KCN Survival (L1 wild-type C. elegans; Dose 12.5 µM): 0.023 | C. elegans KCN Survival (L1 wild-type C. elegans; Dose 25 µM): 0.000 | C. elegans KCN Survival (L1 wild-type C. elegans; Dose 50 µM): 0.000 | C. elegans KCN Survival (L1 wild-type C. elegans; Dose 100 µM): 0.000 | LC50 [1, 4]: 42.2 µM | LC50 [1, 5]: 42.3 µM | CC50 at 2 days (in vitro; [8]): 72.7 µM | viability at 2 days, 3.13 µM (in vitro): 95.5% | viability at 2 days, 6.25 µM (in vitro): 100% | viability at 2 days, 12.5 µM (in vitro): 100% | viability at 2 days, 25 µM (in vitro): 100% | viability at 2 days, 50 µM (in vitro): 76% | viability at 2 days, 100 µM (in vitro): 19.4%

Cc1ccc(OCCn2cnc3ccccc32)cc1 [Compound 5671538]
Screen "Hit" (L1 wild-type C. elegans; [2]): Y (hits were identified as compounds that reduced relative motility below 0.25 (75% reduction)) | C. elegans KCN Survival (L1 wild-type C. elegans; [3]): 0.927 | C. elegans KCN Survival (L1 wild-type C. elegans; Dose 0.39 µM): 0.931 | C. elegans KCN Survival (L1 wild-type C. elegans; Dose 1.56 µM): 0.891 | C. elegans KCN Survival (L1 wild-type C. elegans; Dose 3.13 µM): 0.844 | C. elegans KCN Survival (L1 wild-type C. elegans; Dose 6.25 µM): 0.828 | C. elegans KCN Survival (L1 wild-type C. elegans; Dose 12.5 µM): 0.784 | C. elegans KCN Survival (L1 wild-type C. elegans; Dose 25 µM): 0.550 | C. elegans KCN Survival (L1 wild-type C. elegans; Dose 50 µM): 0.033 | C. elegans KCN Survival (L1 wild-type C. elegans; Dose 100 µM): 0.00256 | LC50 [1, 4]: > 1000 µM | viability at 15.6 µM [1]: 100% | viability at 31.3 µM [1]: 100% | viability at 62.5 µM [1]: 100% | viability at 125 µM [1]: 100% | viability at 250 µM [1]: 100% | viability at 500 µM [1]: 100% | viability at 1000 µM [1]: 100% | LC50 [1, 9]: > 500 µM | LC50 [1, 5]: > 500 µM | CC50 at 2 days (in vitro; [7]): > 100 µM | viability at 2 days, 3.13 µM (in vitro): 92.2% | viability at 2 days, 6.25 µM (in vitro): 98.5% | viability at 2 days, 12.5 µM (in vitro): 97.1% | viability at 2 days, 25 µM (in vitro): 96.2% | viability at 2 days, 50 µM (in vitro): 96.4% | viability at 2 days, 100 µM (in vitro): 61.4%

Cc1nc2ccccc2n1CCOc1ccccc1 [Compound 5550112]
Screen "Hit" (L1 wild-type C. elegans; [2]): Y (hits were identified as compounds that reduced relative motility below 0.25 (75% reduction)) | C. elegans KCN Survival (L1 wild-type C. elegans; [3]): 0.995 | C. elegans KCN Survival (L1 wild-type C. elegans; Dose 0.39 µM): 1.044 | C. elegans KCN Survival (L1 wild-type C. elegans; Dose 1.56 µM): 1.038 | C. elegans KCN Survival (L1 wild-type C. elegans; Dose 3.13 µM): 1.021 | C. elegans KCN Survival (L1 wild-type C. elegans; Dose 6.25 µM): 1.008 | C. elegans KCN Survival (L1 wild-type C. elegans; Dose 12.5 µM): 0.918 | C. elegans KCN Survival (L1 wild-type C. elegans; Dose 25 µM): 0.699 | C. elegans KCN Survival (L1 wild-type C. elegans; Dose 50 µM): 0.269 | C. elegans KCN Survival (L1 wild-type C. elegans; Dose 100 µM): 0.187 | LC50 [1, 4]: > 1000 µM | viability at 1 µM [1]: 99.2% | viability at 2 µM [1]: 100% | viability at 3.9 µM [1]: 96.9% | viability at 15.6 µM [1]: 97.1% | viability at 31.3 µM [1]: 92.9% | viability at 62.5 µM [1]: 100% | viability at 125 µM [1]: 93.6% | viability at 250 µM [1]: 86.4% | viability at 500 µM [1]: 91.2% | viability at 1000 µM [1]: 92.4% | LC50 [1, 9]: > 500 µM | LC50 [1, 5]: > 500 µM | CC50 at 2 days (in vitro; [7]): > 100 µM | viability at 2 days, 3.13 µM (in vitro): 100% | viability at 2 days, 6.25 µM (in vitro): 98.3% | viability at 2 days, 12.5 µM (in vitro): 99.1% | viability at 2 days, 25 µM (in vitro): 100% | viability at 2 days, 50 µM (in vitro): 100% | viability at 2 days, 100 µM (in vitro): 100%

Cc1ccccc1OCCCCn1cnc2ccccc21 [Compound 7732524]
Screen "Hit" (L1 wild-type C. elegans; [6]): Y (hits were identified as compounds that reduced relative motility below 0.25 (75% reduction)) | C. elegans KCN Survival (L1 wild-type C. elegans; [3]): 1.002 | C. elegans KCN Survival (L1 wild-type C. elegans; Dose 0.39 µM): 0.963 | C. elegans KCN Survival (L1 wild-type C. elegans; Dose 1.56 µM): 0.887 | C. elegans KCN Survival (L1 wild-type C. elegans; Dose 3.13 µM): 0.828 | C. elegans KCN Survival (L1 wild-type C. elegans; Dose 6.25 µM): 0.509 | C. elegans KCN Survival (L1 wild-type C. elegans; Dose 12.5 µM): 0.007 | C. elegans KCN Survival (L1 wild-type C. elegans; Dose 25 µM): 0.000 | C. elegans KCN Survival (L1 wild-type C. elegans; Dose 50 µM): 0.000 | C. elegans KCN Survival (L1 wild-type C. elegans; Dose 100 µM): 0.000 | LC50 [1, 4]: 58.5 µM | viability at 15.6 µM [1]: 100% | viability at 31.3 µM [1]: 97% | viability at 62.5 µM [1]: 42.4% | viability at 125 µM [1]: 3.7% | viability at 250 µM [1]: 3.3% | viability at 500 µM [1]: 1.6% | viability at 1000 µM [1]: 1.3% | LC50 [1, 5]: 58.5 µM | CC50 at 2 days (in vitro; [8]): 49.9 µM | viability at 2 days, 3.13 µM (in vitro): 100% | viability at 2 days, 6.25 µM (in vitro): 100% | viability at 2 days, 12.5 µM (in vitro): 100% | viability at 2 days, 25 µM (in vitro): 93.2% | viability at 2 days, 50 µM (in vitro): 48.1% | viability at 2 days, 100 µM (in vitro): 13.7%
